# Literature values as cited in patent US20230330068A1, “GEL COMPOSITION OF LULICONAZOLE FOR TREATMENT OF VAGINAL FUNGAL INFECTIONS AND ITS MANUFACTURING PROCESS” (priority 2023, published 2023).
# System: Candida
# Conditions: anticandidal activity; recent findings from the literature
structure (smiles),measurement,value
N#C/C(=C1/SC[C@@H](c2ccc(Cl)cc2Cl)S1)n1ccnc1 [Luliconazole],minimum inhibitory concentration (MIC) range,31 to 130 µg/mL
